The record followed here is paper PMC3481155, “AhR activation underlies the CYP1A autoinduction by A-998679 in rats” (Frontiers in Genetics, 2012).

Series [1] relates to Mrp2. The series can be described thus: Mrp2 expression in rat small intestine. It is filed as in vivo. The following applies: treated rats; data not shown. On the procedure:
All animal experiments were conducted in accordance with the Guiding Principles in the Use of Animals in Toxicology (http://www.toxicology.org/ai/air/air6.asp) and were approved by Abbott's Institutional Animal Care and Use Committee (IACUC). Male Sprague-Dawley rats [Crl:CD®(SD)IGS BR], weighing ~250 g at study initiation were obtained from Charles River Laboratories, Inc. (Wilmington, MA). Rats were housed singly in ventilated, stainless steel, wire-bottom hanging cages and fed non-certified Rodent Chow (Harlan Labs, Madison, WI), and water ad libitum and acclimated for at least 5 days after arrival. […] Serum clinical chemistry parameters were quantified using an Aeroset Clinical Chemistry Analyzer (Abbott Laboratories, Abbott Park, IL) and included alanine amino transferase (ALT), aspartate amino transferase (AST), gamma glutamyltransferase (GGT), and alkaline phosphatase (ALP) activities.
Frozen liver or jejunum were immediately added to 4 ml of TRIzol reagent (Invitrogen Life Technologies) and homogenized using a Polytron 300D homogenizer (Brinkman Instruments, Westbury, NY). […] Nucleic acid concentration was determined by OD 260 nm (Smart-Spec, Bio-Rad Laboratories, Hercules, CA), and RNA integrity was evaluated using an Agilent 2100 bioanalyzer (Agilent Technologies, Foster City, CA). […]

Series [2] has as its target T1, rat Cyp 2D2 (Rattus norvegicus, UniProt P10634).
T1 construct: purchased BD Gentest; host or cells: baculovirus infected insect cells
The series can be described thus: Recombinant rat Cyp phenotype profiling, 2D2. Type of series: in vitro ADME. To be noted: 60 min. On the procedure: (§1) Identification of the drug metabolizing enzymes (DMEs) of A-998679 was studied in cDNA expressed recombinant enzymes prepared from baculovirus infected insect cells over-expressing rat Cyp isoforms (BD Gentest, Woburn, MA) as listed in Table 2. Incubations were conducted in duplicate using Supersomes. The incubation mixture contained 100 pmol/ml of enzymes, except for Cyp1a1 (200 pmol/ml), 0.1 or 0.21 μM of [^3H]A-998679 in 100 mM phosphate buffer (pH 7.4). Reactions were initiated with the addition of NADPH at a final concentration of 1 mM and incubated at 37°C for 60 min. At the end of the incubation period, the incubations were terminated by the addition of acetonitrile/ethanol (50/50, v/v) solution. Insect control samples lacking expressed enzyme were used as negative control. The degree of metabolism of A-998679 was assessed by percent of parent remaining using the radio-HPLC method described below.
(§2) Radiolabeled components from the above assays were profiled following separation by HPLC with on line radioflow detector. The system consisted of an Agilent 1100 Series quaternary pump and autosampler connected to a Packard 500TR flow scintillation detector. The data were processed using the Radiomatic™ Flo-one® software v3.65. The scintillant (Perkin Elmer FLO-SCINT™ III) flow was maintained at 3 ml/min. […]

Series [3] concerns the target T2, rat Cyp 2C6 (Rattus norvegicus, UniProt P05178).
T2 construct: purchased BD Gentest; host or cells: baculovirus infected insect cells
The experiment in a line: Recombinant rat Cyp phenotype profiling, 2C6. To be noted: 60 min. It is filed as in vitro ADME. The method, then: as §1, §2

Series [4] has as its target T3, CYP2C19 (Homo sapiens, UniProt P33261).
T3 construct: from tissue; host or cells: human liver microsomes
The series can be described thus: CYP inhibition evaluation in human liver microsomes, CYP2C19 (S-mephenytoin). To be noted: probe substrate S-mephenytoin. It is filed as in vitro ADME. On the procedure: Incubations were performed in human liver microsomes using probe substrate concentrations similar to their corresponding Km values. Enzyme activity was evaluated in the presence of various concentrations of A-998679. The incubations consisted of the test article at varying concentrations (0–30 μM), probe substrate (concentration ~Km, see Table A2), human liver microsomal protein and 1 mM NADPH in 50 mM phosphate buffer at pH 7.4. Relative quantitation of the metabolites was obtained by LC-MS/MS using an ABSciex (Foster City, CA) API3000 or API4000 Qtrap hybrid linear ion trap mass spectrometer equipped with a TurboIonspray source using either PerkinElmer series 200 pumps or Agilent 1100 series pump with a Leap autosampler. Analytes were separated using a Phenomenex Prodigy ODS(3) 5 μm, 50 × 2.0 mm column at 50°C, eluted and detected under the specific conditions listed in Tables A3, A4, and A5. The analyte to internal standard peak area ratios were determined using Analyst 1.4 software (Applied Biosytems, Carlsbad, CA). The peak area ratios observed in the presence of test article were compared to the vehicle control in order to determine percent activity. To determine the IC50, the data were plotted as Log [dose] μM vs. % inhibition, and analyzed with a sigmoidal dose-response (variable slope) fitting equation. […]
In general terms: Microsomes from liver hold many membrane-bound enzymes, among them those of drug oxidation.

Structures are written as SMILES.

T1 sequence (P10634 whole entry): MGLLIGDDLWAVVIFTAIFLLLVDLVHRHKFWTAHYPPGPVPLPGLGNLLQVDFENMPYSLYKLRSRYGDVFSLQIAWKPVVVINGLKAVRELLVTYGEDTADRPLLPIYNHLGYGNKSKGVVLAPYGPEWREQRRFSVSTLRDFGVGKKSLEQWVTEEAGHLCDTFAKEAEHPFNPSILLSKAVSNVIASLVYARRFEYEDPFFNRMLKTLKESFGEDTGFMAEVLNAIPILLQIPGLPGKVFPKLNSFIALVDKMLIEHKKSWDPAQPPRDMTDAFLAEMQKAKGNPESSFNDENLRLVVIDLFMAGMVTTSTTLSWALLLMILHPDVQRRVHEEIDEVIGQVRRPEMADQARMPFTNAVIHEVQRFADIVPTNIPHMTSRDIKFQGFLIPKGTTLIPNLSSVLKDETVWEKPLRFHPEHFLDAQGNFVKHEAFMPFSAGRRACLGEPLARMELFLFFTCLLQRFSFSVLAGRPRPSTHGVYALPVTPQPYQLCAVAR
T2 sequence (P05178 whole entry): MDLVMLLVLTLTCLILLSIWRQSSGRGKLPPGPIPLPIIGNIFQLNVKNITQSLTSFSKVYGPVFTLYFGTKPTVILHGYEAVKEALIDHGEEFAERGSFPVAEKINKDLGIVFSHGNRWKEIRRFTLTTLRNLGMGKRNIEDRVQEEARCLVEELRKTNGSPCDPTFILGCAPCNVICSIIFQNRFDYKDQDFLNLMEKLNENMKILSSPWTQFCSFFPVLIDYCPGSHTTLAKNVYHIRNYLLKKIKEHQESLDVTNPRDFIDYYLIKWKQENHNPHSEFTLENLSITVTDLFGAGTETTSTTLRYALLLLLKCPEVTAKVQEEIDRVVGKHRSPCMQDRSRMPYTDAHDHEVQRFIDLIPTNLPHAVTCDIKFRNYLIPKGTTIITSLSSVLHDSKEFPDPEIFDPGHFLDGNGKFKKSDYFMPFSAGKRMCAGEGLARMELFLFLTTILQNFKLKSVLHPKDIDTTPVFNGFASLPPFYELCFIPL
T3 sequence (P33261 whole entry): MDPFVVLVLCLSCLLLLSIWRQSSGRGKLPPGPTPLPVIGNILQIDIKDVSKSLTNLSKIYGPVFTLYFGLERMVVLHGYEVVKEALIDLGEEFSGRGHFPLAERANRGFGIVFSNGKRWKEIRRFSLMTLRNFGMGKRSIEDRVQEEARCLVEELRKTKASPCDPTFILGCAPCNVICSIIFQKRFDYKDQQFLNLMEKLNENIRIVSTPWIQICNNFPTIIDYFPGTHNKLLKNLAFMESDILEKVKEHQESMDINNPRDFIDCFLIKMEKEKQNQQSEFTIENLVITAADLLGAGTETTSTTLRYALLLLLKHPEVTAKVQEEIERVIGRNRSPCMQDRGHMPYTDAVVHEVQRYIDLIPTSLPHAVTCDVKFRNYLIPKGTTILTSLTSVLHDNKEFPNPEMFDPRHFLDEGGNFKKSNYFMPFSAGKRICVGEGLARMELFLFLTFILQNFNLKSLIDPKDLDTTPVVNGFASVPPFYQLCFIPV

The term IC50 denotes the concentration that inhibits the measured activity by half. Lower therefore signals greater potency in that assay. With `N#Cc1cccc(-c2noc(-c3cccnc3)n2)c1` [A-998679, 3-(5-pyridin-3-yl-1,2,4-oxadiazol-3-yl) benzonitrile], the “expression of Mrp2 in small intestine” value in series [1] was “increased expression”. The “% parent remaining” value in series [2] (recombinant rat Cyp 2D2, 0.10 μM) stood at 100%; in series [2] (recombinant rat Cyp 2D2, 0.21 μM), 98.1%; in series [3] (recombinant rat Cyp 2C6, 0.10 μM) it was 91.0%; in series [3] (recombinant rat Cyp 2C6, 0.21 μM), 88.8%. The same compound gave an IC50 in series [4] of over 30 µM.
